From ChEMBL document CHEMBL1201862, “PubChem BioAssay data set” (2004)
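Growth conditions: 96-well plates. Treatment: test compound, 48 hours, 5 concentrations. Analysis: linear interpolation between bracketing concentrations; unreached endpoints set to highest concentration. GI50 = concentration required for 50% inhibition of growth.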 Calls of active or inactive are those of the source. Cut-off read from the data, not from the text of the source: active = GI50 up to about 1.1 µM and inactive = higher.

Columns and labels:
Experiment in all cases: DTP human tumour cell line panel, 48 h
Hs-578T = test system: Hs-578T
SNB-75 = test system: SNB-75
SK-MEL-2 = test system: SK-MEL-2
SF-539 = test system: SF-539
HOP-92 = test system: HOP-92
U-251 = test system: U-251
UACC-257 = test system: UACC-257
NCI-H23 = test system: NCI-H23
PC-3 = test system: PC-3
HL-60 = test system: HL-60
OVCAR-4 = test system: OVCAR-4
MCF7 = test system: MCF7
SK-OV-3 = test system: SK-OV-3
IGROV-1 = test system: IGROV-1
T47D = test system: T47D
HOP-62 = test system: HOP-62
786-0 = test system: 786-0
M14 = test system: M14
SF-295 = test system: SF-295
UO-31 = test system: UO-31

**Q.** What does the source list for COC(=O)C12CCC(C)(C)CC1C1=CCC3C4(C)CC(O)C(O)C(C)(C(=O)OC)C4CCC3(C)C1(CO)CC2 (centres undefined)?
**A.** GI50 (Hs-578T): 12.6 µM (inactive); GI50 (SNB-75): 11.9 µM (inactive); GI50 (SK-MEL-2): 14 µM (inactive); GI50 (SF-539): 15.7 µM (inactive); GI50 (HOP-92): 14.2 µM (inactive); GI50 (U-251): 18.5 µM (inactive); GI50 (UACC-257): 17.2 µM (inactive); GI50 (NCI-H23): 15.5 µM (inactive); GI50 (PC-3): 10.3 µM (inactive); GI50 (HL-60): 7.52 µM (inactive); GI50 (OVCAR-4): 13.5 µM (inactive); GI50 (MCF7): 14.1 µM (inactive); GI50 (SK-OV-3): 16.9 µM (inactive); GI50 (IGROV-1): 17.8 µM (inactive); GI50 (T47D): 10.7 µM (inactive); GI50 (HOP-62): 17.9 µM (inactive); GI50 (786-0): 10.2 µM (inactive); GI50 (M14): 6.75 µM (inactive); GI50 (SF-295): 14.7 µM (inactive)

**Q.** How did the GI50 (Hs-578T) turn out when CC1(C)C/C=C\CCC(O)C(O)CCC(C)(C)C1=O (centres undefined) was run?
**A.** > 100 µM (inactive)

**Q.** What about the GI50 (SNB-75) of the same compound?
**A.** > 100 µM (inactive)

**Q.** And the GI50 (SK-MEL-2)?
**A.** > 100 µM (inactive)

**Q.** What about the GI50 (SF-539) of the same compound?
**A.** > 100 µM (inactive)

**Q.** What about the GI50 (HOP-92) of the same compound?
**A.** > 100 µM (inactive)

**Q.** What about the GI50 (U-251) of the same compound?
**A.** > 100 µM (inactive)

**Q.** And the GI50 (UACC-257)?
**A.** > 100 µM (inactive)

**Q.** And the GI50 (NCI-H23)?
**A.** > 100 µM (inactive)

**Q.** And the GI50 (PC-3)?
**A.** > 100 µM (inactive)

**Q.** And the GI50 (HL-60)?
**A.** > 100 µM (inactive)

**Q.** And the GI50 (OVCAR-4)?
**A.** > 100 µM (inactive)

**Q.** What about the GI50 (MCF7) of the same compound?
**A.** > 100 µM (inactive)

**Q.** What about the GI50 (SK-OV-3) of the same compound?
**A.** > 100 µM (inactive)

**Q.** And the GI50 (IGROV-1)?
**A.** > 100 µM (inactive)

**Q.** What about the GI50 (T47D) of the same compound?
**A.** > 100 µM (inactive)

**Q.** What about the GI50 (HOP-62) of the same compound?
**A.** > 100 µM (inactive)

**Q.** And the GI50 (786-0)?
**A.** > 100 µM (inactive)

**Q.** And the GI50 (UO-31)?
**A.** > 100 µM (inactive)

**Q.** What about the GI50 (SF-295) of the same compound?
**A.** > 100 µM (inactive)

**Q.** Which results are given for Cn1c2ccc3cc2c(=S)c2cc(ccc21)OCCOCCOCCOCCOCCO3?
**A.** GI50 (Hs-578T): > 10 µM (inactive); GI50 (SNB-75): > 10 µM (inactive); GI50 (SK-MEL-2): > 10 µM (inactive); GI50 (SF-539): > 10 µM (inactive); GI50 (HOP-92): > 10 µM (inactive); GI50 (U-251): > 10 µM (inactive); GI50 (UACC-257): > 10 µM (inactive); GI50 (NCI-H23): > 10 µM (inactive); GI50 (PC-3): > 10 µM (inactive); GI50 (HL-60): > 10 µM (inactive); GI50 (OVCAR-4): > 10 µM (inactive); GI50 (MCF7): > 10 µM (inactive); GI50 (SK-OV-3): > 10 µM (inactive); GI50 (IGROV-1): > 10 µM (inactive); GI50 (T47D): > 10 µM (inactive); GI50 (HOP-62): > 10 µM (inactive); GI50 (786-0): > 10 µM (inactive); GI50 (M14): > 10 µM (inactive); GI50 (SF-295): > 10 µM (inactive)

**Q.** For Cn1c(=S)[nH]c(N)c(Cc2ccccc2)c1=O, which GI50 (Hs-578T) is on record?
**A.** 39 µM (inactive)

**Q.** And the GI50 (SNB-75)?
**A.** 20.3 µM (inactive)

**Q.** And the GI50 (SK-MEL-2)?
**A.** > 100 µM (inactive)

**Q.** What about the GI50 (SF-539) of the same compound?
**A.** > 100 µM (inactive)

**Q.** What about the GI50 (HOP-92) of the same compound?
**A.** 25.6 µM (inactive)

**Q.** And the GI50 (U-251)?
**A.** > 100 µM (inactive)

**Q.** What about the GI50 (UACC-257) of the same compound?
**A.** > 100 µM (inactive)

**Q.** And the GI50 (NCI-H23)?
**A.** > 100 µM (inactive)

**Q.** What about the GI50 (PC-3) of the same compound?
**A.** > 100 µM (inactive)

**Q.** And the GI50 (HL-60)?
**A.** > 100 µM (inactive)

**Q.** And the GI50 (OVCAR-4)?
**A.** > 100 µM (inactive)

**Q.** What about the GI50 (MCF7) of the same compound?
**A.** > 100 µM (inactive)

**Q.** And the GI50 (SK-OV-3)?
**A.** > 100 µM (inactive)

**Q.** What about the GI50 (IGROV-1) of the same compound?
**A.** 21.2 µM (inactive)

**Q.** And the GI50 (T47D)?
**A.** 40.3 µM (inactive)

**Q.** And the GI50 (HOP-62)?
**A.** > 100 µM (inactive)

**Q.** And the GI50 (786-0)?
**A.** > 100 µM (inactive)

**Q.** What about the GI50 (M14) of the same compound?
**A.** > 100 µM (inactive)

**Q.** And the GI50 (SF-295)?
**A.** > 100 µM (inactive)

**Q.** Which GI50 (Hs-578T) does the source give for CCN(CC)C(=S)SC1CCOP(=O)(N(CCCl)CCCl)N1C (centres undefined) here?
**A.** > 100 µM (inactive)

**Q.** What about the GI50 (SNB-75) of the same compound?
**A.** > 55.1 µM (inactive)

**Q.** And the GI50 (SK-MEL-2)?
**A.** 20.5 µM (inactive)

**Q.** And the GI50 (SF-539)?
**A.** 33.4 µM (inactive)

**Q.** And the GI50 (HOP-92)?
**A.** 28.2 µM (inactive)

**Q.** And the GI50 (UACC-257)?
**A.** > 40.9 µM (inactive)

**Q.** What about the GI50 (NCI-H23) of the same compound?
**A.** > 100 µM (inactive)

**Q.** And the GI50 (PC-3)?
**A.** > 100 µM (inactive)

**Q.** And the GI50 (HL-60)?
**A.** 0.509 µM (active)

**Q.** What about the GI50 (OVCAR-4) of the same compound?
**A.** 29.9 µM (inactive)

**Q.** What about the GI50 (MCF7) of the same compound?
**A.** 69.3 µM (inactive)

**Q.** What about the GI50 (SK-OV-3) of the same compound?
**A.** > 80.2 µM (inactive)

**Q.** What about the GI50 (IGROV-1) of the same compound?
**A.** 4.34 µM (inactive)

**Q.** And the GI50 (T47D)?
**A.** 61.7 µM (inactive)

**Q.** And the GI50 (HOP-62)?
**A.** > 95.1 µM (inactive)

**Q.** What about the GI50 (786-0) of the same compound?
**A.** 41.2 µM (inactive)

**Q.** What about the GI50 (UO-31) of the same compound?
**A.** 67.8 µM (inactive)

**Q.** And the GI50 (M14)?
**A.** > 39.7 µM (inactive)

**Q.** What about the GI50 (SF-295) of the same compound?
**A.** 55.6 µM (inactive)

**Q.** What does the source list for CC(C)=CC[C@]12CCN[C@H]1N(S(=O)(=O)c1ccccc1)c1ccccc12?
**A.** GI50 (Hs-578T): 20.5 µM (inactive); GI50 (SNB-75): 17.1 µM (inactive); GI50 (SK-MEL-2): 14.2 µM (inactive); GI50 (SF-539): 20.3 µM (inactive); GI50 (HOP-92): 12.2 µM (inactive); GI50 (U-251): 16 µM (inactive); GI50 (UACC-257): 17.6 µM (inactive); GI50 (NCI-H23): > 100 µM (inactive); GI50 (PC-3): 13.5 µM (inactive); GI50 (HL-60): 17.8 µM (inactive); GI50 (OVCAR-4): 14.3 µM (inactive); GI50 (MCF7): 18.2 µM (inactive); GI50 (SK-OV-3): 12.7 µM (inactive); GI50 (IGROV-1): 10.6 µM (inactive); GI50 (T47D): 15.2 µM (inactive); GI50 (HOP-62): 15.3 µM (inactive); GI50 (786-0): 15.6 µM (inactive); GI50 (UO-31): 13.8 µM (inactive); GI50 (SF-295): 14.8 µM (inactive)
